Measurements taken from patent publication US8247377B2, “Non-steroidal glucocorticoid inhibitors and their use in treating inflammation, allergy and auto-immune conditions” (Glaxo Group Limited, priority 2006, dated 2012).

Tests used:
progesterone receptor = biological target: T1, progesterone receptor (Homo sapiens, UniProt P06401); assay: Assay for progesterone receptor activity (CV-1 cells, PRb-BacMam/MMTV-BacMam); assay type: cell-based; details: CV-1 cells transduced with PRb-BacMam and MMTV-BacMam; read-out: pEC50 progesterone receptor activity (converted)
T1 construct: expressed in transfected cells; host or cells: CV-1 cells transduced with PRb-BacMam and MMTV-BacMam
T1 sequence (P06401 1-933): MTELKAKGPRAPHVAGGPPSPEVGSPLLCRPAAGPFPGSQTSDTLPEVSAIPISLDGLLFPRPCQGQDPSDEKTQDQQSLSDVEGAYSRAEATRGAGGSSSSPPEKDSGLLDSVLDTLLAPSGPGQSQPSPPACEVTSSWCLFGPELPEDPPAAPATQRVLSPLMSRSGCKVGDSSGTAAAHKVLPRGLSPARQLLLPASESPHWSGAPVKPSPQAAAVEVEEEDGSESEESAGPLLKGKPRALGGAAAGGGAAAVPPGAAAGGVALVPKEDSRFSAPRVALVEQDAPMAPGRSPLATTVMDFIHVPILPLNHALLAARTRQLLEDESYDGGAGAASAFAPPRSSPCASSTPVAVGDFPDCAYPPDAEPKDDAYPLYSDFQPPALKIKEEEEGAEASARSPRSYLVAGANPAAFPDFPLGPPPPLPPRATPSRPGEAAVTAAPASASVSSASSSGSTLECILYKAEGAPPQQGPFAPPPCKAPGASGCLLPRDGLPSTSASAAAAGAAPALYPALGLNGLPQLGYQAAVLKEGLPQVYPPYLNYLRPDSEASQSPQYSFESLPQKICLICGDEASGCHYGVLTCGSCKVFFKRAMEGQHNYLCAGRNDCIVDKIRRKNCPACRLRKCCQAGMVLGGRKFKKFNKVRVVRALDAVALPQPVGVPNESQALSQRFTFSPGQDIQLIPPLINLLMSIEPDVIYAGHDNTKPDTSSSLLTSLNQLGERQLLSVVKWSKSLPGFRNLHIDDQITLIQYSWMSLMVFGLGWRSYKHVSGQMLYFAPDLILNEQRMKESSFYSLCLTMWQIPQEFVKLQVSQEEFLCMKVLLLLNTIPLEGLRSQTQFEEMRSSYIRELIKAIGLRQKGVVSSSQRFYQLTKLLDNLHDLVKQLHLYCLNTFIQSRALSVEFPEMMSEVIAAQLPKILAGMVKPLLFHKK
Method: A T225 flask of CV-1 cells at a density of 80% confluency was washed with PBS, detached from the flask using 0.25% trypsin and counted using a Sysmex KX-21N. Cells were diluted in DMEM containing 10% Hyclone, 2 mM L-Glutamate and 1% Pen/Strep at 140 cells/μl and transduced with 10% PRb-BacMam and 10% MMTV-BacMam. […] of suspension cells were dispensed to each well of white Nunc 384-well plates, containing compounds at the required concentration. After 24 h 10 μl of Steadylite were added to each well of the plates. Plates were incubated in the dark for 10 min before reading them on a Viewlux reader. Dose response curves were constructed from which pEC50 values were estimated.

glucocorticoid receptor = biological target: T2, glucocorticoid receptor (Homo sapiens, UniProt P04150); assay: Glucocorticoid receptor binding assay (fluorescence polarisation); details: competition with Alexa 555 fluorescently-labelled dexamethasone derivative, full length glucocorticoid receptor; read-out: glucocorticoid binding pIC50 (converted)
T2 construct: a partially purified full length glucocorticoid receptor
T2 sequence (P04150 1-777): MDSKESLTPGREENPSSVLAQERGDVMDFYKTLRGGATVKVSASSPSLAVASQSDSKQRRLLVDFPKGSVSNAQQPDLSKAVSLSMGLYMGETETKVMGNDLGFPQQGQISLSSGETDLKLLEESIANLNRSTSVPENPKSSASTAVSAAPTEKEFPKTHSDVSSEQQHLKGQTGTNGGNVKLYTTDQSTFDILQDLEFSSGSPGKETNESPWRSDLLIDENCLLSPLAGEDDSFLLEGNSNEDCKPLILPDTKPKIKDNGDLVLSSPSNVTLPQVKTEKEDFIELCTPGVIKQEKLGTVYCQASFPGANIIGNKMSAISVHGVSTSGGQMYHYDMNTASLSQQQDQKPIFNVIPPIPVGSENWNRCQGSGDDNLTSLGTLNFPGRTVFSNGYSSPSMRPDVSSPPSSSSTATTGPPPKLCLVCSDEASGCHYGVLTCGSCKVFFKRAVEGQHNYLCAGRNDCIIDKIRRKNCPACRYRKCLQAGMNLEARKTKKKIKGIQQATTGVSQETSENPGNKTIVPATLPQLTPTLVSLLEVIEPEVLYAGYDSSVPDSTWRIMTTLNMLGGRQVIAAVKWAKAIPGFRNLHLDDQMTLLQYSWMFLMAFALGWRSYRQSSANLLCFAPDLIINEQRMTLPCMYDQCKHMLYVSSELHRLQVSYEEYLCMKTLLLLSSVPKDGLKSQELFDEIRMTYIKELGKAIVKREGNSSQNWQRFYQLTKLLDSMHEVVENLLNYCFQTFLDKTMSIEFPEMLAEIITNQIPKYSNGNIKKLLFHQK
Method: Compounds were solvated and diluted in DMSO, and transferred directly into assay plates. Fluorescent dexamethasone and a partially purified full length glucocorticoid receptor were added to the plates, together with buffer components to stabilise the GR protein and incubated at room temperature for 2 hrs in the dark. Binding of each compound was assessed by analysing the displacement of fluorescent ligand by measuring the decrease in fluorescence polarisation signal from the mixture. Dose response curves were constructed from which pIC50 values were estimated.

NFκB = NFκB agonist assay in A549 SPAP cells; assay type: cell-based; details: Homo sapiens; for IC50: A549 SPAP cells, TNFα 3.2 ng/ml, read-out: pIC50 for the NFkB assay (converted);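 as to average maximum asymptote in the NFkB assay: maximum inhibition of the TNFα-induced NFκB-driven signal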
Excerpt: Human lung carcinoma A549 cell line (ECACC No. 86012804) has been stably transfected in house with a plasmid containing an ELAM promoter sequence that has a NFκB response element within it. Stimulation of the cell line with TNFα results in intracellular signal transduction and ultimately translocation of NFκB into the nucleus. This activates the inserted DNA sequence resulting in transcription of the integrated SPAP gene, which is quantified using a colorimetric assay. […] The stably transfected cell line was grown as a monolayer in DMEM supplemented with FCS-HI (10%), Non-essential amino acids (1%), L-Glutamine (2 mM), Pen/Strep (1%) and Geneticin (50 mg/ml).
A 70% confluent T225 flask of A549 SPAP cells was harvested by centrifugation for 5 min at 200 g, resuspended in assay buffer (DMEM supplemented with 10% FCS 2×HI, 2 mM L-Glutamine, 1% Pen/Strep and Non essential amino acids) and diluted to 0.16×10^6/ml. 60 μl of cell solution was dispensed to each well of clear Nunc 384-well plates, containing compound at the required concentration. Plates were incubated for 1 h at 37° C., 95% humidity, 5% CO2 before 10 μl of TNFα was added at final concentration of 3.2 ng/ml and then returned to the cell incubator for 15 h. Plates were equilibrated to room temperature for 1 h prior to the addition of 25 μl of pNPP buffer (1M Diethanolamine pH 9.8, 0.5 mM MgCl2, 0.28M NaCl, 2 mg/ml pNPP) to each well of assay plates. The plates were covered to protect the reagents from light, and then incubated at room temperature for approximately 1 hour before reading them on an Ascent using a 405 nm single filter. Dose response curves were constructed from which pIC50 values were estimated.

MMTV promoter = assay: MMTV agonist assay in A549 MMTV cells; assay type: cell-based; details: Homo sapiens, A549, 6 h, >85% = full agonist, >20% and <85% = partial or efficacy selective agonist, read-out: average maximum asymptote in the MMTV agonist assay
Excerpt: Human lung carcinoma A549 cell line (ECACC No. 86012804) has been stably transfected in house with a plasmid containing a renilla luciferase reporter with an MMTV promoter. Stimulation of the cell line with GR agonists results in intracellular signal transduction and ultimately translocation of GR into the nucleus. This activates the inserted DNA sequence resulting in transcription of the integrated luciferase gene, which is quantified using a light emission. The stably transfected cell line was grown as a monolayer in DMEM supplemented with FCS-HI (10%), Non-essential amino acids (1%), L-Glutamine (2 mM), Pen/Strep (1%) and Geneticin (50 mg/ml).
A 90% confluent T175 flask of A549 MMTV cells was harvested by centrifugation for 5 min at 200 g, resuspended in assay buffer (DMEM supplemented with 10% FCS 2×HI, 2 mM Glutamax, Non essential amino acids and 25 mM HEPES) and diluted to 0.1×10^6/ml. 70 μl of cell solution was dispensed to each well of white Nunc 384-well plates, containing compound at the required concentration. Plates were incubated for 6 h at 37° C., 95% humidity, 5% CO2. Plates were equilibrated to room temperature for 1 h prior to the addition of 10 μl of Renilla substrate to each well of assay plates. The plates were covered to protect the reagents from light, and then incubated at room temperature for approximately 15 mins before reading them on a Viewlux. Dose response curves were constructed from which pEC50 and maximum asymptote values were estimated.

Nc1c(C(=O)NCC(O)(CNC(=O)c2c(F)cccc2F)C(F)(F)F)cnn1-c1ccc(F)cc1 (racemic) [Example 6 (racemic), 5-Amino-N-[2-({[(2,6-difluorophenyl)carbonyl]amino}methyl)-3,3,3-trifluoro-2-hydroxypropyl]-1-(4-fluorophenyl)-1H-pyrazole-4-carboxamide]
EC50 (progesterone receptor): > 1000 nM

Nc1c(C(=O)NCC(O)(CNC(=O)c2c(OC(F)F)cccc2OC(F)F)C(F)(F)F)cnn1-c1ccc(F)cc1 (racemic) [Example 20 (racemic), 5-amino-N-(2-{[({2,6-bis[(difluoromethyl)oxy]phenyl}carbonyl)amino]methyl}-3,3,3-trifluoro-2-hydroxypropyl)-1-(4-fluorophenyl)-1H-pyrazole-4-carboxamide]
IC50 (glucocorticoid receptor): ≤ 316 nM | EC50 (progesterone receptor): > 1000 nM

Nc1c(C(=O)NCC(O)(CN(CCF)C(=O)c2c(OC(F)F)cccc2OC(F)F)C(F)(F)F)cnn1-c1ccc(F)cc1 (racemic) [Example 32 (racemic), 5-amino-N-(2-{[({2,6-bis[(difluoromethyl)oxy]phenyl}carbonyl)(2-fluoroethyl)amino]methyl}-3,3,3-trifluoro-2-hydroxypropyl)-1-(4-fluorophenyl)-1H-pyrazole-4-carboxamide]
IC50 (glucocorticoid receptor): ≤ 316 nM | IC50 (NFκB): < 1000 nM | EC50 (progesterone receptor): > 1000 nM

Nc1c(C(=O)NCC(O)(CNC(=O)c2c(F)cccc2OC(F)F)C(F)(F)F)cnn1-c1ccc(F)cc1 (racemic) [Example 48 (racemic), 5-Amino-N-(2-{[({2-[(difluoromethyl)oxy]-6-fluorophenyl}carbonyl)amino]methyl}-3,3,3-trifluoro-2-hydroxypropyl)-1-(4-fluorophenyl)-1H-pyrazole-4-carboxamide]
IC50 (glucocorticoid receptor): ≤ 316 nM | IC50 (NFκB): < 1000 nM | EC50 (progesterone receptor): > 1000 nM

CCN(CC(O)(CNC(=O)c1cnn(-c2ccc(F)cc2)c1N)C(F)(F)F)C(=O)c1c(Cl)cccc1Cl (single isomer, unassigned) [Example 2 Enantiomer 1, 5-Amino-N-(2-{[[(2,6-dichlorophenyl)carbonyl](ethyl)amino]methyl}-3,3,3-trifluoro-2-hydroxypropyl)-1-(4-fluorophenyl)-1H-pyrazole-4-carboxamide]
IC50 (glucocorticoid receptor): ≤ 316 nM | IC50 (NFκB): < 1000 nM | EC50 (progesterone receptor): > 1000 nM

CCN(CC(O)(CNC(=O)c1cnn(-c2ccc(F)cc2)c1N)C(F)(F)F)C(=O)c1c(F)cccc1Cl (single isomer, unassigned) [Example 4 Enantiomer 1, 5-Amino-N-(2-{[[(2-chloro-6-fluorophenyl)carbonyl](ethyl)amino]methyl}-3,3,3-trifluoro-2-hydroxypropyl)-1-(4-fluorophenyl)-1H-pyrazole-4-carboxamide]
IC50 (glucocorticoid receptor): ≤ 316 nM | IC50 (NFκB): < 1000 nM | EC50 (progesterone receptor): > 1000 nM

Nc1c(C(=O)NCC(O)(CNC(=O)c2c(F)cccc2Cl)C(F)(F)F)cnn1-c1ccc(F)cc1 (single isomer, unassigned) [Example 7 Enantiomer 1, 5-Amino-N-[2-({[(2-chloro-6-fluorophenyl)carbonyl]amino}methyl)-3,3,3-trifluoro-2-hydroxypropyl]-1-(4-fluorophenyl)-1H-pyrazole-4-carboxamide]
IC50 (NFκB): < 1000 nM | EC50 (progesterone receptor): > 1000 nM

Nc1c(C(=O)NCC(O)(CNC(=O)c2c(F)cccc2Cl)C(F)(F)F)cnn1-c1ccc(F)cc1 (single isomer, unassigned) [Example 7 Enantiomer 2, 5-Amino-N-[2-({[(2-chloro-6-fluorophenyl)carbonyl]amino}methyl)-3,3,3-trifluoro-2-hydroxypropyl]-1-(4-fluorophenyl)-1H-pyrazole-4-carboxamide]
Emax (NFκB; A549, A549 SPAP cells, >85% = full agonist, ≧20% = partial or full agonist, read-out: average maximum asymptote in the NFkB assay): ≥ 20% | Emax (MMTV promoter): 20 to 85%

Nc1c(C(=O)NCC(O)(CNC(=O)c2c(C(F)(F)F)cccc2C(F)(F)F)C(F)(F)F)cnn1-c1ccc(F)cc1 (single isomer, unassigned) [Example 15 Enantiomer 2, 5-amino-N-{2-[({[2,6-bis(trifluoromethyl)phenyl]carbonyl}amino)methyl]-3,3,3-trifluoro-2-hydroxypropyl}-1-(4-fluorophenyl)-1H-pyrazole-4-carboxamide]
IC50 (NFκB): < 1000 nM
